Measurements reported in US20150087587A1, “Process for the Synchronization of Ovulation for Timed Breeding Without Heat Detection” (priority 2003, published 2015).

What was measured:
Assay type in all cases: in vivo, swine
postpartum sows [1] = experiment: Timed injection 96 hours post-weaning and single timed insemination without estrus detection; pregnancy, embryos and CL (Example 3); conditions: 50 mcg deslorelin in SAIB at 96 hours post-weaning
Experimental: Approximately 170 postpartum sows were randomly divided into two equal groups comprised of controls and treated. Following weaning, the controls were detected for estrus and bred following the normal standard operating procedures for the farms on which they resided. The treated sows received a 50 mcg dose of deslorelin in SAIB at 96 hours post-weaning and were bred with a single insemination 28+/−2 hours later with no regard to estrus detection. The sows were examined for pregnancy by ultrasound at 21 days and slaughtered around 28 days post breeding, The entire reproductive tract was removed and corpora lutea and embryos were counted.

mature postpartum sows = experiment: Intravulvar injection at estrus detection with AI in mature postpartum sows (Example 2); conditions: 50 mcg deslorelin in SAIB intravulvar at estrus detection
Experimental: Sows were assigned randomly in blocks of two to either control or to be injected intravulvar with 50 mcg of deslorelin in SAIB at the time of estrus detection for sows first detected in estrus in the a.m. and 12 hours later for those first detected in estrus in the p.m. Treated animals were bred AI upon detected estrus and again 24 hours later if still in estrus. Controls received a saline injection on first detected estrus behavior estrus detection and were bred according to the farm's normal procedures.

postpartum sows [2] = experiment: Litter size and pregnancy rate after treatment in postpartum sows at three farm sites (Example 4); conditions: regardless of estrus detection
Excerpt: Postpartum sows were randomly distributed into three different groups comprised of Controls, Treatment 1, and Treatment 2, with the exception of Site 3, which was divided into two groups, Control and Treatment 2. Control sows were detected for estrus following weaning, and bred following the normal standard operating procedures for the farms on which they resided. Treatment 1 sows were detected for estrus following weaning, and received a 50 mcg dose of deslorelin in the morning when standing and were bred by AI 4 hours later and again at 24+/−2 hours later. Treatment 2 sows received a 50 mcg dose of deslorelin in SAIB at 96 or 120 hours post-weaning and were bred with a single insemination 28+/−2 hours later with no regard to estrus detection. […]

With `CCNC(=O)[C@@H]1CCCN1C(=O)[C@H](CCCN=C(N)N)NC(=O)[C@H](CC(C)C)NC(=O)[C@@H](Cc1c[nH]c2ccccc12)NC(=O)[C@H](Cc1ccc(O)cc1)NC(=O)[C@H](CO)NC(=O)[C@H](Cc1c[nH]c2ccccc12)NC(=O)[C@H](Cc1cnc[nH]1)NC(=O)[C@@H]1CCC(=O)N1` [Deslorelin, deslorelin] the “Embryo Survival” value (postpartum sows [1]; single insemination) was 64%, the “Pregnancy Rate” value (postpartum sows [1]; single insemination 28+/-2 hours later, no estrus detection) was 71% and the “Sows Pregnant” value (postpartum sows [1]; single insemination 28+/-2 hours later, 84 in group) was 60. The “Pregnancy rates, Control versus Treated (in words)” value (mature postpartum sows) was “no significant difference” and the “Litter sizes (in words)” value (postpartum sows [2]) was “normal litter sizes”.
